Target: T1, CDK9 (Inactive) (Homo sapiens, UniProt P50750)
T1 construct: purchased Thermo Fisher Scientific (Life Technologies) SelectScreen
Experiment: SelectScreen LanthaScreen
Format: binding
Details: read-out: % displacement
How it was run: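 NU5455 was profiled across the SelectScreen Broad panel of kinase activity and binding assays. Z'LYTE reactions such as CSF1R ran at apparent Km ATP, while the Adapta CAMK1 assay used ATP listed as 10. Values are given as percent.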

T1 sequence (P50750 whole entry): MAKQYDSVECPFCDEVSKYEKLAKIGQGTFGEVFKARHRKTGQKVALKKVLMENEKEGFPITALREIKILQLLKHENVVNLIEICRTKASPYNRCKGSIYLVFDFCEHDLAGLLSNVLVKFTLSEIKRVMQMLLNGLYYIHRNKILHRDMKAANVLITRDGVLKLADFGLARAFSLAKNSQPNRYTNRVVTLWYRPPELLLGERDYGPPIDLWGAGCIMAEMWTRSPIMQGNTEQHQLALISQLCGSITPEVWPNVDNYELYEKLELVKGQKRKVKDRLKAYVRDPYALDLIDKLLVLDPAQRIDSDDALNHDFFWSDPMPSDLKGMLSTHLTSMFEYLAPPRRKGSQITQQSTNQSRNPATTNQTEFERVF

`CN(C(=O)CN1CCOCC1)c1ccc2sc3c(-c4cccc5c(=O)cc(N6CC7CCC(C6)O7)oc45)cccc3c2c1` [NU5455] showed an inhibition at 1 µM of 9%.
